Laboratory results from US9914722B2, “Compounds for treating spinal muscular atrophy” (PTC Therapeutics Inc., priority 2012, dated 2018).

What was measured:
Smn protein = Smn protein assay (Smn HTRF) in cultured cells; type: cell-based, human; conditions: Homo sapiens, Fibroblast, GM03813 SMA Type 1 patient fibroblasts, 48 hours, HTRF; for maximal fold induction: 7-point concentration data, relative to vehicle, read-out: maximum fold (Fold) increase of Smn protein; for EC (1.5-fold): concentration producing 1.5 times Smn protein vs DMSO vehicle, read-out: EC1.5x for Smn protein expression
Experimental: Smn Protein Assay in Cultured Cells
The Smn HTRF (homogeneous time resolved fluorescence) assay is used to quantify the level of Smn protein in SMA patient fibroblast cells treated with test compounds.
Protocol. Cells are thawed and cultured in DMEM-10% FBS for 72 hours. Cells are trypsinized, counted and re-suspended to a concentration of 25,000 cells/mL in DMEM-10% FBS. The cell suspension is plated at 5,000 cells per well in a 96 well microtiter plate and incubated for 3 to 5 hours. […] Test compounds are serially diluted 3.16-fold in 100% DMSO to generate a 7-point concentration curve. 1 μL of test compound solution is transferred to cell-containing wells and cells are incubated for 48 hours in a cell culture incubator (37° C., 5% CO2, 100% relateive humidity). Triplicate samples are set up for each test compound concentration. After 48 hours, the supernatant is removed from the wells and 25 μL of the RIPA lysis buffer, containing protease inhibitors, is added to the wells and incubated with shaking at room temperature for 1 hour. 25 μL of the diluent is added and then 35 μL of the resulting lysate is transferred to a 384-well plate, where each well contains 5 μL of the antibody solution (1:100 dilution of anti-SMN d2 and anti-SMN kryptate in SMN reconstitution buffer). The plate is centrifuged for 1 minute to bring the solution to the bottom of the wells, then incubated overnight at room temperature. Fluorescence for each well of the plate at 665 nm and 620 nm is measured on an EnVision multilabel plate reader (Perkin-Elmer).
The normalized fluorescence signal is calculated for each sample, Blank and vehicle control well by dividing the signal at 665 nm by the signal at 620 nm. Normalizing the signal accounts for possible fluorescence quenching due to the matrix effect of the lysate. The AF value (a measurement of Smn protein abundance as a percent value) for each sample well is calculated by subtracting the normalized average fluorescence for the Blank control wells from the normalized fluorescence for each sample well, then dividing this difference by the normalized average fluorescence for the Blank control wells and multiplying the resulting value by 100. The ΔF value for each sample well represents the Smn protein abundance from test compound-treated samples. The ΔF value for each sample well is divided by the ΔF value for the vehicle control wells to calculate the fold increase in Smn protein abundance relative to the vehicle control.
For compounds of Formula (I) or a form thereof disclosed herein, Table 9 provides the EC1.5x for Smn protein expression that was obtained from the 7-point concentration data generated for each test compound according to the procedure of Biological Example 7. The term “EC1.5x for Smn protein expression” is defined as that concentration of test compound that is effective in producing 1.5 times the amount of Smn protein in an SMA patient fibroblast cell compared to the amount produced from the DMSO vehicle control. An EC1.5x for Smn protein expression between >3 μM and ≦10 μM is indicated by one star (*), an EC1.5x between >1 μM and ≦3 μM is indicated by two stars (**), an EC1.5x between >0.3 μM and ≦1 μM is indicated by three stars (***) and an EC1.5x≦0.3 μM is indicated by four stars (****).
For compounds of Formula (I) or a form thereof disclosed herein, Table 10 provides the maximum fold (Fold) increase of Smn protein that was obtained from the 7-point concentration data generated for each test compound according to the procedure of Biological Example 7. A maximum fold increase ≦1.2 is indicated by one star (*), a fold increase between >1.2 and ≦1.35 is indicated by two stars (**), a fold increase between >1.35 and ≦1.5 is indicated by three stars (***), a fold increase between >1.5 and ≦1.65 is indicated by four stars (****) and a fold increase >1.65 is indicated by five stars (*****).

[1] = system: full length SMN2 minigene mRNA containing SMN2 exon 7 (SMN2-A minigene); assay: SMN2 minigene mRNA splicing RT-qPCR assay in cultured cells; type: cell-based, human; conditions: Homo sapiens, HEK293-H; HEK293H cells stably transfected with SMN2-A minigene, 24 hours, 7-point concentration curve; concentration giving 1.5-fold SMN2 full length mRNA vs vehicle; read-out: EC1.5x for production of full length SMN2 mRNA
Experimental: SMN2 Minigene mRNA Splicing RT-qPCR Assay in Cultured Cells
The reverse transcription-quantitative PCR-based (RT-qPCR) assay is used to quantify the level of the full length SMN2 minigene mRNA containing SMN2 exon 7 in a HEK293H cell line stably transfected with said minigene and treated with a test compound.
Protocol. HEK293H cells stably transfected with the SMN2-A minigene construct described above (10,000 cells/well) are seeded in 200 μL of cell culture medium (DMEM plus 10% FBS, with 200 μg/mL hygromycin) in 96-well flat-bottom plates and the plate is immediately swirled to ensure proper dispersal of cells, forming an even monolayer of cells. Cells are allowed to attach for at least 4-6 hours. Test compounds are serially diluted 3.16-fold in 100% DMSO to generate a 7-point concentration curve. A solution of test compound (1 μL, 200× in DMSO) is added to each cell-containing well and the plate is incubated for 24 hours in a cell culture incubator (37° C., 5% CO2, 100% relative humidity). Two replicates are prepared for each test compound concentration. The cells are then lysed in Cells-To-Ct lysis buffer and the lysate is stored at −80° C.
Primer SMN Forward A (SEQ ID NO. 1) hybridizes to a nucleotide sequence in exon 7 (nucleotide 22 to nucleotide 40), primer SMN Reverse A (SEQ ID NO. 2) hybridizes to a nucleotide sequence in the coding sequence of Firefly luciferase, SMN Probe A (SEQ ID NO. 3) hybridizes to a nucleotide sequence in exon 7 (nucleotide 50 to nucleotide 54) and exon 8 (nucleotide 1 to nucleotide 21). The combination of these three oligonucleotides detects only SMN1 or SMN2 minigenes (RT-qPCR) and will not detect endogenous SMN1 or SMN2 genes.
The SMN forward and reverse primers are used at final concentrations of 0.4 μM. The SMN probe is used at a final concentration of 0.15 μM. The GAPDH primers are used at final concentrations of 0.2 μM and the probe at 0.15 μM.
The SMN2-minigene GAPDH mix (15 μL total volume) is prepared by combining 7.5 μL of 2×RT-PCR buffer, 0.4 μL of 25×RT-PCR enzyme mix, 0.75 μL of 20×GAPDH primer-probe mix, 4.0075 μL of water, 2 μL of 10-fold diluted cell lysate, 0.06 μL of 100 μM SMN forward primer, 0.06 μL of 100 μM SMN reverse primer, and 0.225 μL of 100 μM SMN probe.
PCR is carried out at the following temperatures for the indicated time: Step 1: 48° C. (15 min); Step 2: 95° C. (10 min); Step 3: 95° C. (15 sec); Step 4: 60° C. (1 min); then repeat Steps 3 and 4 for a total of 40 cycles.
Each reaction mixture contains both SMN2-A minigene and GAPDH primers/probe sets (multiplex design), allowing simultaneous measurement of the levels of two transcripts.
Two SMN spliced products are generated from the SMN2 minigene. The first spliced product containing exon 7, corresponding to SMN2 full length mRNA, is referred to herein using the term “SMN2 minigene FL.” The second spliced product lacking exon 7 is referred to herein using the term “SMN2 minigene Δ7.”
The increase of SMN2 minigene FL mRNA relative to that in cells treated with vehicle control is determined from real-time PCR data using a modified ΔΔCt method (as described in Livak and Schmittgen, Methods, 2001, 25:402-8). The amplification efficiency (E) is calculated from the slope of the amplification curve for SMN2 minigene FL and GAPDH mRNA individually. The abundance of SMN2 minigene FL and GAPDH mRNA are then calculated as (1+E)^−Ct, where Ct is the threshold value for each amplicon. The abundance of SMN2 minigene FL is normalized to GAPDH abundance. The normalized SMN2 minigene FL abundance from test compound-treated samples is then divided by normalized SMN2 minigene FL abundance from vehicle-treated cells to determine the level of SMN2 FL mRNA relative to vehicle control. […]

Row | SMILES | maximal fold induction (Smn protein) | EC (1.5-fold) [1] [µM] | melting point [°C] | EC (1.5-fold) (Smn protein) [µM]
1 | COc1ccc(-c2cc(=O)c3cc(N4CCN[C@@H](C)C4)ccc3o2)cc1C [Cpd 52, 2-(4-methoxy-3-methylphenyl)-6-[(3S)-3-methylpiperazin-1-yl]-4H-chromen-4-one] | 1.35 to 1.5 | 0.1 to 0.3 | 174 to 176 | 
2 | COc1ccc(-c2cc(=O)c3cc(N4CCN[C@H](C)C4)ccc3o2)cc1Cl [Cpd 61, 2-(3-chloro-4-methoxyphenyl)-6-[(3R)-3-methylpiperazin-1-yl]-4H-chromen-4-one] | 1.2 to 1.35 | 0.1 to 0.3 | 170 to 172 | 
3 | O=c1cc(-c2cccnc2)oc2ccc(N3CCNCC3)cc12 [Cpd 1, 6-(piperazin-1-yl)-2-(pyridin-3-yl)-4H-chromen-4-one] | 1.35 to 1.5 | 0.3 to 1 | 177 to 180 | 
4 | COc1ccc(-c2cc(=O)c3cc(N4CCNCC4)ccc3o2)cc1Cl [Cpd 58, 2-(3-chloro-4-methoxyphenyl)-6-(piperazin-1-yl)-4H-chromen-4-one] | 1.35 to 1.5 | ≤ 0.1 | 145 to 150 | 1 to 3
5 | COc1ccc(-c2cc(=O)c3cc(N4CCN[C@@H](C)C4)ccc3o2)cc1 [Cpd 63, 2-(4-methoxyphenyl)-6-[(3S)-3-methylpiperazin-1-yl]-4H-chromen-4-one] | 1.5 to 1.65 | 0.1 to 0.3 | 155 to 160 | 0.3 to 1
6 | C[C@H]1CN(c2ccc3oc(-c4ccc(OC(F)(F)F)cc4)cc(=O)c3c2)CCN1 [Cpd 65, 6-[(3S)-3-methylpiperazin-1-yl]-2-[4-(trifluoromethoxy)phenyl]-4H-chromen-4-one] | ≤ 1.2 | 1 to 3 | 138 to 140 | 
7 | COc1ccc(-c2cc(=O)c3cc(N4CCNCC4)ccc3o2)cn1 [Cpd 55, 2-(6-methoxypyridin-3-yl)-6-(piperazin-1-yl)-4H-chromen-4-one] | 1.2 to 1.35 | 0.3 to 1 | 165 to 170 | 
8 | COc1ccc(-c2cc(=O)c3cc(N4CCN[C@H](C)C4)ccc3o2)cn1 [Cpd 57, 2-(6-methoxypyridin-3-yl)-6-[(3R)-3-methylpiperazin-1-yl]-4H-chromen-4-one] | 1.2 to 1.35 | 0.3 to 1 | 198 to 200 | 
9 | Cc1cn2cc(-c3cc(=O)c4cc(N5CCN[C@@H](C)C5)ccc4o3)nc2cn1 [Cpd 73, 2-(6-methylimidazo[1,2-a]pyrazin-2-yl)-6-[(3S)-3-methylpiperazin-1-yl]-4H-chromen-4-one] | > 1.65 | ≤ 0.1 | 212 to 216 | ≤ 0.3
10 | O=c1cc(-c2cccnc2)oc2ccc(N3CCCNCC3)cc12 [Cpd 6, 6-(1,4-diazepan-1-yl)-2-(pyridin-3-yl)-4H-chromen-4-one] | ≤ 1.2 | 3 to 30 | 162 to 164 | 
11 | CN1CCCN(c2ccc3oc(-c4cn5ccccc5n4)cc(=O)c3c2)CC1 [Cpd 19, 2-(imidazo[1,2-a]pyridin-2-yl)-6-(4-methyl-1,4-diazepan-1-yl)-4H-chromen-4-one] | > 1.65 | 3 to 30 | 188 to 190 | 1 to 3
12 | COc1ccc(-c2cc(=O)c3cc(N4CCNCC4)ccc3o2)cc1C(F)(F)F [Cpd 69, 2-[4-methoxy-3-(trifluoromethyl)phenyl]-6-(piperazin-1-yl)-4H-chromen-4-one] | 1.35 to 1.5 | 0.3 to 1 | 128 to 132 | 
13 | O=c1cc(-c2cn3ccccc3n2)oc2ccc(N3CCNCC3)cc12 [Cpd 8, 2-(imidazo[1,2-a]pyridin-2-yl)-6-(piperazin-1-yl)-4H-chromen-4-one] | 1.5 to 1.65 | 0.3 to 1 | 207 to 211 | 3 to 10
14 | C[C@H]1CN(c2ccc3oc(-c4cccc(C(F)(F)F)c4)cc(=O)c3c2)CCN1 [Cpd 78, 6-[(3S)-3-methylpiperazin-1-yl]-2-[3-(trifluoromethyl)phenyl]-4H-chromen-4-one] | > 1.65 | ≤ 0.1 | 150 to 152 | ≤ 0.3
